In one experiment the target is T1, HIV-1 protease (Human immunodeficiency virus type 1 group M subtype B, UniProt P04585).
T1 construct: HIV-1 protease is available for purchase from Medigenics; purchased Medigenics, 701 Mercy Rd., Suite 420, Omaha, Nebraska 68106
The experiment in a line: in vitro inhibition of HIV-1 protease (octapeptide substrate cleavage, HPLC). The following applies: substrate H-Val-Ser-Gln-Asn-Tyr-Pro-Ile-Val-OH. Format: biochemical. As to the method: HIV-1 protease is available for purchase from Medigenics, 701 Mercy Rd., Suite 420, Omaha, Nebraska 68106. Protease activity is assayed using the octapeptide H-Val-Ser-Gln-Asn-Tyr-Pro-Ile-Val-OH as the substrate. Cleavage of the substrate is quantitated by measuring the production of H-Val-Ser-Gln-Asn-Tyr-OH by HPLC analysis by the method described by Tomaselli et al., (cited previously).

Experiment [1] has as its system HTLV-IIIB strain of HIV-1. The experiment is described as follows: anti-HIV-1 activity in H9 based tissue culture, supernatant p24 antigen. Type of experiment: cell-based. Particulars: for inhibition at 0.2 µg/mL / inhibition at 2 µg/mL / inhibition at 20 µg/mL: Human immunodeficiency virus 1, IIIB, read-out: % Inhibition p24; for % Inhibition p24: H9 culture, relative to infected control cultures. As to the method: Compounds are also tested for their ability to act as anti-HIV-1 compounds in tissue culture. The tests are performed in H9 based tissue culture challenged with HTLV-IIIB strain of HIV-1. The assay consists of evaluating the percent inhibition of supernatent p24 antigen concentrations relative to infected control cultures, as well as percent viable cells at 20 µg/ml in uninfected cells.

The subject of a further experiment is HIV-1 strain IIIB. The experiment in a line: inhibition of growth of HIV-1 in MT-2 cells, CPE (cell death) measured with MTT dye. Type of experiment: cell-based. The following applies: T lymphoid MT-2 cell lines, after 5 days; for inhibition at 2.5 µg/mL / inhibition at 0.625 µg/mL: Human immunodeficiency virus 1, IIIB, MT2, 120 h, read-out: % Inhibition at Concentration. From the text: In Table 3 data is shown for the ability of these compounds to inhibit growth of HIV-1 strain IIIB in T lymphoid MT-2 cell lines. The endpoint of these experiments after 5 days is CPE (cell death) measured with the metabolic MTT dye.
(Tetrazolium dyes change colour on reduction, which living cells bring about.)

`CC(C)CNC(=O)[C@H](Cc1ccccc1)CC(O)C[C@@H](Cc1ccccc1)C(=O)NCC(C)C` (relative stereo) [Example 331, [R,(R*,R*)-N,N'-4-hydroxy-N,N'-bis(2-methylpropyl)-2,6-bis(phenylmethyl)heptanediamide] gave an IC50 at HIV-1 protease of 0.5 µM.
On HIV-1 protease, `CC(C)(C)NC(=O)C1CCCCN1CC(O)(CO)CN1CCCCC1C(=O)NC(C)(C)C` (single isomer, unassigned) [58 (Isomer A)] displayed a half-maximal inhibitory concentration (IC50) of over 1000 µM.
Still for that read-out and setting: then `CC(C)(C)NC(=O)C1CCCCN1CC(O)(CO)CN1CCCCC1C(=O)NC(C)(C)C` (single isomer, unassigned) [58 (Isomer B)], with 100 µM; and `CC(C)(C)NC(=O)C(Cc1ccccc1)CC(O)CC(Cc1ccccc1)C(=O)NC(C)(C)C` (stereo not drawn) [Example 36], with 0.1 µM; and `O=C(NC1CCCC1)C(Cc1ccccc1)CC(O)CC(Cc1ccccc1)C(=O)NC1CCCC1` (stereo not drawn) [Example 39], with 0.01 µM.
On HIV-1 protease, `O=C(NCC1CCCCC1)C(Cc1ccccc1)CC(O)CC(Cc1ccccc1)C(=O)NCC1CCCCC1` (stereo not drawn) [Example 42] yielded an IC50 of 50 µM.
In turn, `CC(C)(C)OC(=O)NC1CCCCC1NC(=O)C(Cc1ccccc1)CC(O)CC(Cc1ccccc1)C(=O)NC1CCCCC1NC(=O)OC(C)(C)C` (stereo not drawn) [Example 46] had an IC50 against HIV-1 protease of 0.8 µM.
Turning to `CC(C)(C)NC(=O)CN(Cc1ccccc1)CC(O)(CO)CN(CC(=O)NC(C)(C)C)Cc1ccccc1` [Example 52], in experiment [1], the inhibition at 0.2 µg/mL worked out at 0%, the inhibition at 2 µg/mL came to 0% and the inhibition at 20 µg/mL was 90%. Further, the IC50 on HIV-1 protease turned out to be 5 µM.
`CC(C)(C)NC(=O)CN(Cc1ccccc1)CC(O)CN(CC(=O)NC(C)(C)C)Cc1ccccc1` [Example 53]: on HIV-1 protease, the IC50 was 100 µM.
Still for that read-out and setting: then `CCOC(=O)CN(Cc1ccccc1)CC(O)(CO)CN(CC(=O)NC(C)(C)C)Cc1ccccc1` (stereo not drawn) [Example 54], with 100 µM.
On to `CCOC(=O)CN(Cc1ccccc1)CC(O)(CO)CN(CC(=O)OCC)Cc1ccccc1` [Example 55], for which, in experiment [1], the inhibition at 0.2 µg/mL amounted to 0%, the inhibition at 2 µg/mL was determined as 0% and the inhibition at 20 µg/mL worked out at 0%. The compound further yielded an IC50 on HIV-1 protease of 100 µM.
In the case of `CCOC(=O)CN(CC1CCCCC1)CC(O)(CO)CN(CC(=O)OCC)CC1CCCCC1` [Example 60], the IC50 against HIV-1 protease amounted to 50 µM.
`COC(=O)[C@H](Cc1ccccc1)NC(=O)[C@@H](NC(=O)[C@H](Cc1ccccc1)CC(O)C[C@@H](Cc1ccccc1)C(=O)N[C@H](C(=O)N[C@@H](Cc1ccccc1)C(=O)OC)C(C)C)C(C)C` [Example 110, [R-(R*,R*)]-N^ω,N^ω'-(2,6-Bis(phenylmethyl)-4-hydroxy-1,7-dioxo-1,7-heptanediyl)bis[N-L-valyl-L-phenylalanine] dimethyl ester]: the inhibition at 2.5 µg/mL in the experiment with HIV-1 strain IIIB (2.5 µg/ml) came to 58.7%. For the same compound, the inhibition at 0.625 µg/mL with HIV-1 strain IIIB (.625 µg/ml) was determined as 16.6%. The same compound displayed an IC50 against HIV-1 protease of 0.01 µM.
For `O=C(NC1CCCCC1Nc1ccncc1)C(Cc1ccccc1)CC(O)CC(Cc1ccccc1)C(=O)NC1CCCCC1Nc1ccncc1` (stereo not drawn) [Example 323, [1S-[1α[2R*,6R*,7(1R*,2R*)],2β]]-4-Hydroxy-2,6-bis(phenylmethyl)-N,N'-bis[[(4-pyridyl)amino]cyclohexyl]-heptanediamde], the “% Inhibition at Concentration” value in the experiment on HIV-1 strain IIIB (2.5 µg/ml) is 3.1%; in the experiment on HIV-1 strain IIIB (.625 µg/ml), 0.2%. This compound also registered a 50% inhibitory concentration (IC50) against HIV-1 protease of 0.1 µM.
On to `O=C(NC1CCCCC1Nc1cccnc1)C(Cc1ccccc1)CC(O)CC(Cc1ccccc1)C(=O)NC1CCCCC1Nc1cccnc1` (stereo not drawn) [Example 324, [1S-[1α[2R*,6R*,7(1R*,2R*)],2β]]-4-Hydroxy-2,6-bis(phenylmethyl)-N,N'-bis[[(3-pyridyl)amino]cyclohexyl]-heptanediamde], for which 0.1 µM corresponded to half-maximal inhibition against HIV-1 protease (IC50).
Turning to `O=C(NC1CCCCC1Nc1ccccn1)C(Cc1ccccc1)CC(O)CC(Cc1ccccc1)C(=O)NC1CCCCC1Nc1ccccn1` (stereo not drawn) [Example 325, [1S-[1α[2R*,6R*,7(1R*,2R*)],2β]]-4-Hydroxy-2,6-bis(phenylmethyl)-N,N'-bis[[(2-pyridyl)amino]cyclohexyl]-heptanediamde], the “% Inhibition at Concentration” value is 3.8% in the experiment on HIV-1 strain IIIB (2.5 µg/ml) and 0.0% with HIV-1 strain IIIB (.625 µg/ml). The IC50 at HIV-1 protease was 0.1 µM.
In the case of `CC(=O)NC1CCCCC1NC(=O)C(Cc1ccccc1)CC(O)CC(Cc1ccccc1)C(=O)NC1CCCCC1NC(C)=O` (stereo not drawn) [Example 326, [1S-[1α[2R*,6R*,7(1R*,2R*)],2β]]-4-Hydroxy-2,6-bis(phenylmethyl)-N,N'-bis[[(2-acetyl)amino]cyclohexyl]-heptanediamde], the figures for the “% Inhibition p24” value in experiment [1] (2 µg/ml), in experiment [1] (20 µg/ml) and in experiment [1] (.2 µg/ml) were 0%, 3% and 0%, respectively. For the same compound, the half-inhibitory concentration (IC50) against HIV-1 protease turned out to be 0.1 µM.
For `O=C(Cc1ccccn1)NC1CCCCC1NC(=O)C(Cc1ccccc1)CC(O)CC(Cc1ccccc1)C(=O)NC1CCCCC1NC(=O)Cc1ccccn1` (stereo not drawn) [Example 327, [1S-[1α[2R*,6R*,7(1R*,2R*)],2β]]-4-Hydroxy-2,6-bis(phenylmethyl)-N,N'-bis[[((2-pyridyl)acetyl)amino]cyclohexyl]-heptanediamde], the “% Inhibition at Concentration” value in the experiment on HIV-1 strain IIIB (2.5 µg/ml) and in the experiment on HIV-1 strain IIIB (.625 µg/ml) was 3.2% in each case. Moreover, it took 0.1 µM to reach half-maximal inhibition on HIV-1 protease (IC50).
On to `CC(C)C(NC(=O)C(Cc1ccccc1)CC(O)CC(Cc1ccccc1)C(=O)NC(C(=O)NCc1nc2ccccc2[nH]1)C(C)C)C(=O)NCc1nc2ccccc2[nH]1` (stereo not drawn) [Example 328, [1S-[1R*[2S*,6S*,7R*],2R*]]-4-Hydroxy-2,6-bis(phenylmethyl)-N,N'-bis[1-[[(1-H-benzimidazoyl-2ylmethyl)amino]carbonyl]-2-methylpropyl]-heptanediamide], for which, in the experiment with HIV-1 strain IIIB (2.5 µg/ml), the inhibition at 2.5 µg/mL is 72.8%. The inhibition at 0.625 µg/mL with HIV-1 strain IIIB (.625 µg/ml) came out at 17.1%. The same compound came in with an IC50 on HIV-1 protease of 0.005 µM.
Regarding `CCC(C)C(NC(=O)C(Cc1ccccc1)CC(O)CC(Cc1ccccc1)C(=O)NC(C(=O)NCc1nc2ccccc2[nH]1)C(C)CC)C(=O)NCc1nc2ccccc2[nH]1` (stereo not drawn) [Example 329, [1S-[1R*[2S*,6S*,7(1R*,2R*)],2R*]]-4-Hydroxy-2,6-bis(phenylmethyl)-N,N'-bis[1-[[(1-H-benzimidazoyl-2ylmethyl)amino]carbonyl]-2-methylbutyl]heptanediamide], the inhibition at 2.5 µg/mL in the experiment on HIV-1 strain IIIB (2.5 µg/ml) is 97.9%. The inhibition at 0.625 µg/mL in the experiment with HIV-1 strain IIIB (.625 µg/ml) amounted to 92.5%. Further, it took 0.005 µM to reach half-maximal inhibition at HIV-1 protease (IC50).
`O=C(NC1CCCCC1)[C@H](Cc1ccccc1)CC(O)C[C@@H](Cc1ccccc1)C(=O)NC1CCCCC1` [Example 330, [R-(R*,R*)]-N,N'dicyclohexyl-4-hydroxy-2,6-bis(phenylmethyl) heptanediamide]: in experiment [1], the inhibition at 0.2 µg/mL amounted to 0%, the inhibition at 2 µg/mL turned out to be 0% and the inhibition at 20 µg/mL was 0%. The compound also gave a half-inhibitory concentration (IC50) against HIV-1 protease of 0.1 µM.

One may read the IC50 as the concentration needed to halve the response being measured. Usually % Inhibition stands for the share of the control response that was lost under treatment. Low values mean a response near the control, high ones a response far below the control.

The values are drawn from patent EP0492136A2, “Retroviral protease inhibitors derived from 3-chloro-2-chloromethyl-1-propene” (AMERICAN CYANAMID COMPANY, priority 1990, dated 1992).
